Results from patent US20160361251A1, “NOVEL PROCESS FOR PRODUCING TRANSMUCOSAL PHARMACEUTICAL FORMULATIONS AND FORMULATIONS THUS OBTAINED” (Clemann Group, priority 2013, published 2016).

Assay: Dissolution of active ingredient in ternary mixture stearate 1500/TPGS/water
Format: physicochemical
Protocol: For this purpose, 10 g of ternary mixture are prepared from 4.50 g of stearate 1500, 500 mg of TPGS and 5 g of water at 50° C. This mixture is maintained at 50° C. with stirring for 5 minutes.
In an Erlenmeyer provided with magnetic stirring, 1.80 g of stearate 1500 and 200 mg of TPGS are mixed at 50° C. with stirring for 3 minutes in order to form a homogenous and intimate mixture of both polymers. The mixture is then slowly cooled to 40° C.
1 ml of an aqueous solution of rBetv1 is then prepared at a concentration of 3 mg/ml.
1 ml of this solution is then introduced into the previous mixture of molten polymer maintained at 40° C.

## CNCC(O)c1ccc(O)c(O)c1.O=C(O)C(O)C(O)C(=O)O (centres unmarked) [adrenaline bitartrate]
Stearate 1500/TPGS/water 4.50 g/500 mg/5 g at 50° C., 4.54 g powder added
  dissolution in ternary mixture: total and rapid

B1: rBetv1: recombinant allergen rBetv1, a characteristic allergen of trees of the order of fagales and in particular birch (protein, UniProt P15494 2-160, looked up)
Major pollen allergen Bet v …: GVFNYETETTSVIPAARLFKAFILDGDNLFPKVAPQAISSVENIEGNGGPGTIKKISFPEGFPFKYVKDRVDEVDHTNFKYNYSVIEGGPIGDTLEKISNEIKIVATPDGGSILKISNKYHTKGDHEVKAEQVKASKEMGETLLRAVESYLLAHSDAYN
1 ml of 3 mg/ml aqueous solution into 1.80 g stearate 1500 + 200 mg TPGS at 40° C.
  dissolution in molten polymer mixture: complete and rapid
